The subject of one data set is WiT49. Briefly: Cellular proliferation assay (ATP-Lite), WiT49 cells. Conditions: Table 6. Type of data set: cell-based, human. On the procedure:
For the purpose of assessing the gene modulation ability of the oligonucleotides of the present invention, the effect of their administration on cell viability was determined. For this purpose 5×10^3 cells per well were seeded into 96-well cell culture plates (experiments conducted in triplicate) with 100 μl of OPTI-MEM (GIBCO BRL) medium containing 4% FBS and 2 mM of L-glutammine. The PNA oligonucleotides were administered at different concentrations (1 μM-2.5 μM-5 μM-10 μM) in order to observe a dose-effect relationship. The viability of the treated cells was determined at 48, 72, 96 and 168 hours after treatment. Cell viability was assessed by means of an ATP-Lite assay (Luminescence ATP Detection Assay System, PerkinElmer) and is reported as the ratio between the average signal of the treated wells compared to the average value of the wells of untreated control cells. The cells were processed following the instructions provided with the kit. The assays were performed on the same cell lines used to determine the levels of the MYCN gene messenger and listed in the paragraph: Treatments with Oligonucleotides-QT-PCR. The PNAs having SEQ ID NO: 1-12 were also tested on different cell lines which overexpress MYCN (Kelly, SKNBE2c, RH30, […] 1 and H69). The results are shown in Table 6 and confirm the selectivity and specificity of the inhibition effect of the PNAs on the product of protein translation of the MYCN gene.

In another data set the test system is MYCN gene. Briefly: QT-PCR, MYCN mRNA in WiT49 cells. Type of data set: cell-based, human. The following applies: Table 6. The method, then:
For the purpose of assessing the ability of the oligonucleotides of the present invention to modulate the expression of the target genes, their ability to reduce the quantity of messenger RNA was analyzed using the Real-Time PCR technique. For this purpose, use was made of 24-well plates, which were seeded with 5.0×10^4 cells with 0.3 ml of OPTI-MEM (GIBCO BRL) medium, 4% FBS and 2 mM L-glutammine (experiments in triplicate) per well. The cells were incubated for 24 hours at 37° C., in an atmosphere containing 5% CO2 to permit adherence to the base of the wells. For each well, the oligonucleotides were analyzed at the following final concentrations: • the antisense oligonucleotides siRNA and siRNA gapmer (i.e. the oligonucleotides containing one or more monomers of chemically modified nucleic acids at the 3' or 5' end, while in the central portion they have monomers of nucleic acids that have not been modified or have been modified at the level of the phosphodiester bond as a phosphorothioate bond) were used at 200 nM; • the antisense oligonucleotides containing phosphorothioate DNA monomers, the RNA antigene oligonucleotides (agRNA) and the oligonucleotides containing DNA monomers and LNA monomers were used at 10 μM; • the morpholino oligonucleotides were used at a concentration of 1 μM, and • the PNA oligonucleotides were administered at a concentration of 1 μM. The cells were treated with the oligonucleotides, adding FBS up to 4% 6 hours after administration of the same. After 24 hours the total RNA was extracted from each well and purified using the RNeasy Mini Kit (QIAGEN). Assays were performed on 8 cell lines obtained from 5 different human tumours which are correlated with MYCN expression, i.e.: • as a neuroblastoma model use was made of the cell lines Kelly, IMR-32 (where the MYCN gene is amplified and superexpressed) and SKNBE2c and LAN1 (where the MYCN gene is amplified and superexpressed and the p53 gene is mutated); • as a rabdomiosarcoma model use was made of the cell line RH30, where the MYCN gene is amplified and superexpressed; • as a Wilms' tumour model use was made of the cell line WiT49, where the MYCN gene is amplified and superexpressed; • as a retinoblastoma model use was made of the cell line Y79, where the MYCN gene is amplified and superexpressed; and • as a model of small cell lung cancer use was made of the cell line H69 where the MYCN gene is amplified and superexpressed. As a control, use was made of the same cell lines as listed above treated with sterile water instead of oligonucleotides. Each RNA sample was quantified (in duplicate) using a NanoDrop ND-1000 spectrophotometer (NanoDrop Technologies). The first strand of cDNA was produced using the cDNA Synthesis Kit for RT-PCR (Roche). For the cDNA synthesis reaction a total of 1 μg of RNA was used. For the real-time PCR, 10 ng of cDNA in a final volume of 20 μl was used with SYBR Green Master Mix 2× (Applied Biosystems) (3 identical experiments were conducted in triplicate). Two housekeeping genes were used as positive controls: GAPDH and beta-actin (ACTB). The conditions of the QT-PCR reaction were: 10 min at 95° C., 20 sec at 95° C., and 30 sec at 60° C., for 50 cycles. The PNAs having SEQ ID NO: 1-12 were also tested on different cell lines which overexpress MYCN (Kelly, SKNBE2c, RH30, […] 1 and H69). The results are shown in Table 6 and confirm the selectivity and specificity of the inhibition effect of the PNAs on the product of protein translation of the MYCN gene.

Another data set deals with NIH-3T3. The experiment in a line: Cellular proliferation, NIH-3T3 fibroblastoid-type cells. Type of data set: cell-based. Conditions: Table 1; cells that do not express MYCN. The method, then: (§1) Cell viability was assessed by means of an ATP-Lite assay (Luminescence ATP Detection Assay System, PerkinElmer) and is reported as the ratio between the average signal of the treated wells compared to the average value of the wells of untreated control cells. The cells were processed following the instructions provided with the kit.
(§2) Moreover, the oligonucleotides having SEQ ID NO 1-23 were administered in lines of fibroblastoid-type cells (NIH-3T3 and Phoenix) and the results are shown in Table 1 (last two columns). […]

Another data set concerns Phoenix. The experiment in a line: Cellular proliferation, Phoenix fibroblastoid-type cells. It counts as cell-based. Conditions: Table 1; cells that do not express MYCN. The method, then:
as §1, §2

This note sets out measurements from patent US10752900B2, “Oligonucleotides for modulating gene expression and uses thereof” (BIOGENERA S.P.A., priority 2012, dated 2020).

Take “SEQ ID NO: 1: PNA ATGCCGGGCATGATCT against MYCN; subject of patent EP 1618195, control sequence used for comparison (all peptide nucleic acid (PNA)) [reference compound]”: the “WiT49 % cell prol.” value in the data set with WiT49 worked out at 74%. In addition, in the data set on MYCN gene, the “WiT49 % mRNA” value was 62%. For the same substance, the “NIH-3T3 prolif. (%)” value in the data set on NIH-3T3 turned out to be 100%. For the same substance, in the data set on Phoenix, the “Phoenix prolif. (%)” value turned out to be 100%.

For “SEQ ID NO: 2: PNA antigene oligonucleotide GGGTGGATGCGGGGGG directed against MYCN (PNA backbone, chemistry not fully specified)”, the “WiT49 % cell prol.” value in the data set with WiT49 came to 54%. Further, the “WiT49 % mRNA” value in the data set with MYCN gene turned out to be 78%. Further, the “NIH-3T3 prolif. (%)” value with NIH-3T3 amounted to 100%. Moreover, the “Phoenix prolif. (%)” value in the data set with Phoenix turned out to be 100%.

As to “SEQ ID NO: 3: PNA antigene oligonucleotide GATGCGGGGGGCTCCT directed against MYCN (PNA backbone, chemistry not fully specified)”, the “WiT49 % cell prol.” value in the data set with WiT49 was 57%. In the data set on MYCN gene, the “WiT49 % mRNA” value stood at 75%. The “NIH-3T3 prolif. (%)” value in the data set on NIH-3T3 is 100%. For the same substance, in the data set on Phoenix, the “Phoenix prolif. (%)” value is given as 100%.

Consider “SEQ ID NO: 4: PNA antigene oligonucleotide GTCGGCGGGAGGTAAG directed against MYCN (PNA backbone, chemistry not fully specified)”, for which, in the data set with WiT49, the “WiT49 % cell prol.” value was found to be 60%. Further, in the data set with MYCN gene, the “WiT49 % mRNA” value was determined as 73%. The “NIH-3T3 prolif. (%)” value in the data set with NIH-3T3 was 100%. Also, in the data set on Phoenix, the “Phoenix prolif. (%)” value was 100%.

“SEQ ID NO: 5: PNA antigene oligonucleotide GCTGGGTGGATGCGGG directed against MYCN (PNA backbone, chemistry not fully specified)”: the “WiT49 % cell prol.” value in the data set with WiT49 came to 63%. Further, the “WiT49 % mRNA” value in the data set with MYCN gene came out at 69%. Further, the “NIH-3T3 prolif. (%)” value in the data set on NIH-3T3 is 100%. In addition, in the data set with Phoenix, the “Phoenix prolif. (%)” value is 100%.

On to “SEQ ID NO: 6: PNA antigene oligonucleotide TGGACGCGCTGGGTGG directed against MYCN (PNA backbone, chemistry not fully specified)”, for which, in the data set with WiT49, the “WiT49 % cell prol.” value is recorded as 65%. In addition, in the data set on MYCN gene, the “WiT49 % mRNA” value stood at 68%. For the same substance, the “NIH-3T3 prolif. (%)” value in the data set on NIH-3T3 turned out to be 100%. Besides, the “Phoenix prolif. (%)” value in the data set on Phoenix was 100%.

Regarding “SEQ ID NO: 7: PNA antigene oligonucleotide CGCGCTGGGTGGATGC directed against MYCN (all peptide nucleic acid (PNA))”, the “WiT49 % cell prol.” value with WiT49 came out at 60%. The “WiT49 % mRNA” value in the data set on MYCN gene stood at 70%. Moreover, in the data set on NIH-3T3, the “NIH-3T3 prolif. (%)” value amounted to 100%. Moreover, the “Phoenix prolif. (%)” value in the data set on Phoenix stood at 100%.

With “SEQ ID NO: 8: PNA antigene oligonucleotide GTCTGGACGCGCTGGG directed against MYCN (all peptide nucleic acid (PNA))”, in the data set on WiT49, the “WiT49 % cell prol.” value was 62%. In the data set with MYCN gene, the “WiT49 % mRNA” value stood at 72%. Further, the “NIH-3T3 prolif. (%)” value in the data set with NIH-3T3 was 100%. In addition, the “Phoenix prolif. (%)” value in the data set with Phoenix amounted to 100%.

In the case of “SEQ ID NO: 9: PNA antigene oligonucleotide CCCTGCAGTCGGCGGG directed against MYCN (all peptide nucleic acid (PNA))”, the “WiT49 % cell prol.” value in the data set on WiT49 worked out at 68%. Moreover, the “WiT49 % mRNA” value in the data set with MYCN gene stood at 66%. For the same substance, in the data set on NIH-3T3, the “NIH-3T3 prolif. (%)” value is given as 100%. Besides, the “Phoenix prolif. (%)” value in the data set with Phoenix turned out to be 100%.

Regarding “SEQ ID NO: 10: PNA antigene oligonucleotide CGGCCGCGGGCCGCCA directed against MYCN (PNA backbone, chemistry not fully specified)”, the “WiT49 % cell prol.” value in the data set on WiT49 is listed as 70%. Moreover, in the data set with MYCN gene, the “WiT49 % mRNA” value is listed as 60%. In addition, in the data set on NIH-3T3, the “NIH-3T3 prolif. (%)” value was 100%. For the same substance, in the data set with Phoenix, the “Phoenix prolif. (%)” value worked out at 100%.

In the case of “SEQ ID NO: 11: PNA antigene oligonucleotide GGGAACTGTGTTGGAG directed against MYCN (PNA backbone, chemistry not fully specified)”, the “WiT49 % cell prol.” value with WiT49 was found to be 72%. Also, the “WiT49 % mRNA” value in the data set on MYCN gene came to 60%. The “NIH-3T3 prolif. (%)” value with NIH-3T3 stood at 100%. Further, the “Phoenix prolif. (%)” value with Phoenix worked out at 100%.

In the case of “SEQ ID NO: 12: PNA antigene oligonucleotide TGTCTGGACGCGCTGG directed against MYCN (all peptide nucleic acid (PNA))”, the “WiT49 % cell prol.” value in the data set on WiT49 stood at 73%. Further, in the data set on MYCN gene, the “WiT49 % mRNA” value was determined as 62%. Moreover, in the data set on NIH-3T3, the “NIH-3T3 prolif. (%)” value is listed as 100%. In addition, the “Phoenix prolif. (%)” value in the data set on Phoenix is 100%.
